Results reported in patent US20030153056A1, “Glycosyltransferase proteins” (priority 2000, published 2003).

T1: Brainiac β1-3-N-acetylglucosaminyltransferase (Drosophila melanogaster, UniProt Q24157)
T1 construct: The full coding region of Brainiac was prepared by PCR using genomic DNA; made in house; host or cells: High Five insect cells (baculovirus vector pVL1393); microsomal fractions
T1 sequence (Q24157 1-325): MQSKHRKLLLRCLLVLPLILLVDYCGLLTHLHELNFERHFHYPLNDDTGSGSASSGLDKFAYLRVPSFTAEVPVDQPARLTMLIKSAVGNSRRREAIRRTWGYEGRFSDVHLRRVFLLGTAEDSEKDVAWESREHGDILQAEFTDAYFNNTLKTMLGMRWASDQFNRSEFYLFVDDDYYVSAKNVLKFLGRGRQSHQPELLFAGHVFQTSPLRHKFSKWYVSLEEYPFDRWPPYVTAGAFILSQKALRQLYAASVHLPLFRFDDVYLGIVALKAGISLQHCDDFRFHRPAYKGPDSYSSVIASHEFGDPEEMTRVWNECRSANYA


Experiments:
[1] = target: T1, Brainiac β1-3-N-acetylglucosaminyltransferase; assay: Substrate specificities of Brainiac β1-3-N-acetylglucosaminyltransferase (acceptor panel, microsomal preparations); assay type: biochemical; settings: microsomes of pVL-Brainiac infected High Five cells, background of irrelevant construct subtracted, donor UDP-GlcNAc
Notch = target: T2, Notch (Drosophila melanogaster, UniProt P07207); assay: Delta-AP binding to Notch transfected S2 cells; assay type: cell-based
T2 construct: expressed in transfected cells; host or cells: Drosophila Schneider S2 cells, transient transfection, pRmHa3
Description: Cell culture and Binding assays: cDNAs for expression in Schneider S2 cells were cloned into pRmHa3. Cells were transiently transfected by the CaPO4 method using 6-8 μg of DNA per well in 6 well plates. Expression was induced by addition of 0.7 mM CuSO4 for 2 days. Conditioned medium was collected from Notch-AP and Delta-AP transfected cells 2 days after induction. AP activity was adjusted to normalise activity levels of Notch-AP or Delta-AP expressed with or without Fringe. Binding was performed as described in Cheng and Flanagan, 1994. In brief, AP-containing supernatants were supplemented with 0.1% NaN3, and incubated 90 min at room temperature. Cells were washed 5 times in HBSS containing 0.05% BSA and 0.1% azide, and lysed in 10 mM Tris pH 8, 1% Triton-X100. Endogenous AP was inactivated by heat treatment for 10 min 60° C. and the lysates clarified by centrifugation. AP activity was measured in 1M Diethanolamine, 1 mM MgCl2, 5 mM para-nitrophenyl phosphate. Bound AP activity was quantified in 96 well plates using a microplate reader and Micromanager software (BioRad). An additional replicate of each transfection was prepared for immunoblot analysis. Lysates were prepared separately for Immunoblot analysis to allow inclusion of protease inhibitors which are not used in the binding assay. To measure interaction of Delta-AP with transiently transfected S2 cells, bound AP activity was quantified in an enzymatic colour reaction. Cells transfected with empty vector were used as a control. […] AP activity is shown in mOD units/minute in cell extracts (replicate experiments are shown in this figure). In this experiment Fringe stimulated binding by over 50 fold. […] However, the assay allows measurement of Fringe-dependent stimulation of Delta-AP binding.

T2 sequence (P07207 53-2703): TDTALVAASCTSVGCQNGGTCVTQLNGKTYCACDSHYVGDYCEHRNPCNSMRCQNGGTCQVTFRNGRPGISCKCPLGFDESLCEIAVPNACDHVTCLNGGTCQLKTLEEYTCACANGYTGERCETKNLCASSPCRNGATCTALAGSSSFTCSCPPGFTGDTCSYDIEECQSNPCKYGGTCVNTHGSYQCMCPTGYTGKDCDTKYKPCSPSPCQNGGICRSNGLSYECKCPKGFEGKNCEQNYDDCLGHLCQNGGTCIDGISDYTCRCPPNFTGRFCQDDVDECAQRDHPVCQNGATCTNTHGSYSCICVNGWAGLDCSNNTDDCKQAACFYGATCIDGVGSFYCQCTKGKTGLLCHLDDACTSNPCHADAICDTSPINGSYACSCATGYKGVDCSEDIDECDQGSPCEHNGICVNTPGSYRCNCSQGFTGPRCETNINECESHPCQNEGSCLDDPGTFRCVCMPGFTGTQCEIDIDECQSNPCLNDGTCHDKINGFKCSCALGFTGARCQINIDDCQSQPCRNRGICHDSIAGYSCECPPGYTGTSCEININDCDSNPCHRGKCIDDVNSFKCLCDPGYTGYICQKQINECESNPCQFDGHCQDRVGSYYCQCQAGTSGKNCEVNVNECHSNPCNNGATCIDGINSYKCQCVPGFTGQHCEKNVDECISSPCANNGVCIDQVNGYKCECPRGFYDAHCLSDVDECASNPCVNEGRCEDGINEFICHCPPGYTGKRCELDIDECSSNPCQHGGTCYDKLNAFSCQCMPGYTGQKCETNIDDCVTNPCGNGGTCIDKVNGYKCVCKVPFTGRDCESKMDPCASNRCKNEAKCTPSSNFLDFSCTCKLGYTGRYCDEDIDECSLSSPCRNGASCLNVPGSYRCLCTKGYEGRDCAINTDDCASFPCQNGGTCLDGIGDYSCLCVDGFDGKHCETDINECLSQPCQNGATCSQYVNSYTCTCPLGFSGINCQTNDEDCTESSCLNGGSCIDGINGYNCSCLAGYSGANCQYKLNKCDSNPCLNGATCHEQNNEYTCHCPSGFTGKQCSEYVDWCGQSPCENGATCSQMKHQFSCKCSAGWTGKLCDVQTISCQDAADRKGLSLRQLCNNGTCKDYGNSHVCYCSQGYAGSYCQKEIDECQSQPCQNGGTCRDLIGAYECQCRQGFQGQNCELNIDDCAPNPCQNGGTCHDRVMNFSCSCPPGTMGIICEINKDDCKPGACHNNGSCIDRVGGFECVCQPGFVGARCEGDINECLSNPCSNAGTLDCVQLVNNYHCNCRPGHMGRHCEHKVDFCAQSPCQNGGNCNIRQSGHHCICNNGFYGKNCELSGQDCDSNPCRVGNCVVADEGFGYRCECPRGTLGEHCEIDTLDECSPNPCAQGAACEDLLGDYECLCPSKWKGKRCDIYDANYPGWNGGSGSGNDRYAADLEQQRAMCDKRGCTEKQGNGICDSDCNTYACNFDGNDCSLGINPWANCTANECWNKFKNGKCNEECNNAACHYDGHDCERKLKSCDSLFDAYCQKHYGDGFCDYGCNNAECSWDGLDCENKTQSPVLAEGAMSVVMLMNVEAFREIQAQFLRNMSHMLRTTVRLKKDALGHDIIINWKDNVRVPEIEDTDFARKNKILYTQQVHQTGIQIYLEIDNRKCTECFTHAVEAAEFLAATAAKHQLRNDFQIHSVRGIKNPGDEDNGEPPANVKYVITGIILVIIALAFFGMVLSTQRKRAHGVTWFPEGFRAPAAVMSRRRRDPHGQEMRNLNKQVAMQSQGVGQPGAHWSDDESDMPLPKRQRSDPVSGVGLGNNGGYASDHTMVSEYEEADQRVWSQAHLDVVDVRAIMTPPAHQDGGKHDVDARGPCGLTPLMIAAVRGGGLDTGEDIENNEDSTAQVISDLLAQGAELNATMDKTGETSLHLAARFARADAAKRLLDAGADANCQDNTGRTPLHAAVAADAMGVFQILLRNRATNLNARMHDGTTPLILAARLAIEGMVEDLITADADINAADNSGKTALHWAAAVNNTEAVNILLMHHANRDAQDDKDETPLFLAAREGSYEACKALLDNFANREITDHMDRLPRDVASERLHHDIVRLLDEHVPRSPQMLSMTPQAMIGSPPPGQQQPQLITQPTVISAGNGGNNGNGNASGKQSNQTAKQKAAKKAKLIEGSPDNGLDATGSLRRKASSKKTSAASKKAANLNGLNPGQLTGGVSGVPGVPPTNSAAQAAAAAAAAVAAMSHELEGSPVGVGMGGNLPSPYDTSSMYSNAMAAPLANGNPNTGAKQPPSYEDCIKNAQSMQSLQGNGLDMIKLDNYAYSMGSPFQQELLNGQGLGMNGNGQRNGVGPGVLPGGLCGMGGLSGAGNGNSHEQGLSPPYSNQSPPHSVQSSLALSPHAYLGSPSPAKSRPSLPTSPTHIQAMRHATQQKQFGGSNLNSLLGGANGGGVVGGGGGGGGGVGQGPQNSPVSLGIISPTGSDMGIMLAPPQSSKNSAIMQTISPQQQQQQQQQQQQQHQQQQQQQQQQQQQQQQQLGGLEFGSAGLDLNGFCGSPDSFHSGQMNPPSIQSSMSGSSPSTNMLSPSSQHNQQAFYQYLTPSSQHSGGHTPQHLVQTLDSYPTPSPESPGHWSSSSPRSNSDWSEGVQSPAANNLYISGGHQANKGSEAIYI

| Molecule | Brainiac activity with substrate ([1]; substrate 2 mM) [nmol/h/mg] | Brainiac activity with substrate ([1]; substrate 20 mM) [nmol/h/mg] | Delta-AP binding, in words (Notch; Notch-expressing cells co-cultured with Fringe-expressing cells for two days (secreted Fringe)) | Effect on Delta-AP binding, in words (Notch; co-expressed with Notch in S2 cells) | Stimulation of Delta-AP binding (Notch; co-expressed with Notch in S2 cells, FIG. 3b) |
| --- | --- | --- | --- | --- | --- |
| CC(=O)N[C@H]1[C@H](O[C@H]2[C@@H](O)[C@@H](CO)O[C@@H](O[C@H]3[C@H](O)[C@@H](O)C(O)O[C@@H]3CO)[C@@H]2O)O[C@H](CO)[C@@H](O[C@@H]2O[C@H](CO)[C@H](O)[C@H](O)[C@H]2O)[C@@H]1O (mixture of isomers) [lacto-N-neo-tetraose] | 0.03 | – | – | – | – |
| C[C@H]1OC(O)[C@H](O)[C@@H](O)[C@H]1O (stereo partly drawn) [D-Fuc] | 0.01 | 0.01 | – | – | – |
| Cc1cc(=O)oc2cc(O[C@H]3O[C@H](C)[C@H](O)[C@H](O)[C@H]3O)ccc12 [D-Fucα1-MeUmb] | 0.00 | 0.00 | – | – | – |
| OC[C@H]1O[C@@H](O[C@@H]2[C@H](O)[C@@H](O)C(O)O[C@@H]2CO)[C@H](O)[C@@H](O)[C@H]1O (stereo partly drawn) [Galβ1-4Gal] | 0.00 | 0.00 | – | – | – |
| CC(=O)N[C@H]1[C@H](OCc2ccccc2)O[C@H](CO)[C@@H](O[C@@H]2O[C@H](CO)[C@H](O)[C@H](O)[C@H]2O)[C@@H]1O [Galβ1-4GlcNAcβ1-Bzl] | 0.04 | 0.02 | – | – | – |
| OC[C@H]1O[C@@H](O[C@H]2[C@H](O)[C@@H](O)C(O)O[C@@H]2CO)[C@H](O)[C@@H](O)[C@H]1O (stereo partly drawn) [Galβ1-4Glc] | 0.42 | 3.08 | – | – | – |
| OC[C@H]1O[C@@H](O[C@H]2[C@H](O)[C@@H](O)[C@H](OCc3ccccc3)O[C@@H]2CO)[C@H](O)[C@@H](O)[C@H]1O [Galβ1-4Glcβ1-Bzl] | 0.48 | 1.69 | – | – | – |
| CC(=O)N[C@@H]1C(O)O[C@H](CO)[C@@H](O[C@@H]2O[C@H](CO)[C@H](O)[C@H](O)[C@H]2O)[C@@H]1O (stereo partly drawn) [Galβ1-4ManNAc] | 0.10 | 0.42 | – | – | – |
| OC[C@H]1O[C@@H](O[C@H]2[C@H](O)[C@H](O)C(O)O[C@@H]2CO)[C@H](O)[C@@H](O)[C@H]1O (stereo partly drawn) [Galβ1-4Man] | 1.48 | 8.39 | – | – | – |
| Cc1cc(=O)oc2cc(O[C@@H]3O[C@H](CO)[C@H](O)[C@H](O)[C@H]3O)ccc12 [Galβ1-MeUmb] | 0.19 | 0.00 | – | – | – |
| O=[N+]([O-])c1ccccc1O[C@@H]1O[C@H](CO)[C@H](O)[C@H](O)[C@H]1O [Galβ1-oNph] | 0.21 | 0.02 | – | – | – |
| C[C@@H]1OC(N)[C@@H](O)[C@H](O)[C@@H]1O (stereo partly drawn) [L-Fucosylamine] | 0.28 | 0.60 | – | – | – |
| Cc1cc(=O)oc2cc(O[C@@H]3O[C@@H](C)[C@@H](O)[C@@H](O)[C@@H]3O)ccc12 [L-Fucα1-MeUmb] | 0.00 | 0.00 | – | – | – |
| C[C@@H]1O[C@H](Oc2ccc([N+](=O)[O-])cc2)[C@@H](O)[C@H](O)[C@@H]1O [L-Fucβ1-pNph] | 0.01 | 0.02 | – | – | – |
| COC1OC(CO)C(O)C(O)C1O (stereo not drawn) [Manα1 -Me] | 0.36 | 0.61 | – | – | – |
| OCC1OC(OCC2OC(OCC3OC(O)C(O)C(OC4OC(CO)C(O)C(O)C4O)C3O)C(O)C(OC3OC(CO)C(O)C(O)C3O)C2O)C(O)C(O)C1O (stereo not drawn) [Manα1-3(Manα1-6)Manα1-6(Manα1-3)Man] | 0.09 | 0.45 | – | – | – |
| CO[C@H]1O[C@H](CO)[C@@H](O)[C@H](O[C@H]2O[C@H](CO)[C@@H](O)[C@H](O)[C@@H]2O)[C@@H]1O [Manα1-3Manα1-Me] | 0.00 | 0.00 | – | – | – |
| CO[C@H]1O[C@H](CO)[C@@H](O[C@H]2O[C@H](CO)[C@@H](O)[C@H](O)[C@@H]2O)[C@H](O)[C@@H]1O [Manα1-4Manα1-Me] | 0.00 | 0.00 | – | – | – |
| OC[C@H]1O[C@H](OC[C@H]2O[C@H](OCc3ccccc3)[C@@H](O)[C@@H](O[C@H]3O[C@H](CO)[C@@H](O)[C@H](O)[C@@H]3O)[C@@H]2O)[C@@H](O)[C@@H](O)[C@@H]1O [Manα1-6(Manα1-3)Manα1-Bzl] | 0.01 | 0.08 | – | – | – |
| CO[C@H]1O[C@H](CO[C@H]2O[C@H](CO)[C@@H](O)[C@H](O)[C@@H]2O)[C@@H](O)[C@H](O)[C@@H]1O [Manα1-6Manα1-Me] | 0.02 | 0.05 | – | – | – |
| Cc1cc(=O)oc2cc(O[C@H]3O[C@H](CO)[C@@H](O)[C@H](O)[C@@H]3O)ccc12 [Manα1-MeUmb] | 0.11 | 0.17 | – | – | – |
| CO[C@H]1O[C@H](CO)[C@@H](O)[C@H](O)[C@@H]1O[C@@H]1O[C@H](CO)[C@@H](O)[C@H](O)[C@@H]1O [Manβ1-2Manα1-Me] | 0.15 | 0.16 | – | – | – |
| Cc1cc(=O)oc2cc(O[C@@H]3O[C@H](CO)[C@@H](O)[C@H](O)[C@@H]3O)ccc12 [Manβ1-MeUmb] | 5.25 | 6.18 | – | – | – |
| CO[C@@H]1O[C@H](CO)[C@@H](O)[C@H](O)[C@@H]1O [Manβ1-Me] | 1.46 | 2.74 | – | – | – |
| CC(=O)N[C@H]1[C@H](O[C@H]2[C@@H](O)[C@@H](CO)O[C@@H](O[C@H]3[C@H](O)[C@@H](O)C(O)O[C@@H]3CO)[C@@H]2O)O[C@H](CO)[C@@H](O)[C@@H]1O[C@@H]1O[C@H](CO)[C@H](O)[C@H](O)[C@H]1O (stereo partly drawn) [lacto-N-tetraose] | 0.00 | 0.00 | – | – | – |
| Galβ1-4GlcNAc | 0.03 | 0.12 | – | – | – |
| Fringe: Drosophila Fringe protein with a single C-terminal myc-epitope tag (protein, UniProt Q24342 1-412, looked up, C-terminal myc tag) Fringe glycosyltransferase: MMSLTVLSPPQRFKRILQAMMLAVAVVYMTLLLYQSAYGYPGIQVPHSQVDALASEAVTTHRDQLLQDYVQSSTPTQPGAGAPAASPTTVIIRKDIRSFNFSDIEVSERPTATLLTELARRSRNGELLRDLSQRAVTATPQPPVTELDDIFISVKTTKNYHDTRLALIIKTWFQLARDQTWFFTDTDDHYYQEKTKGHLINTKCSQGHFRKALCCKMSAELDVFLESGKKWFCHFDDDNYVNVPRLVKLLDEYSPSVDWYLGKPSISSPLEIHLDSKNTTTNKKITFWFATGGAGFCLSRALTLKMLPIAGGGKFISIGDKIRFPDDVTMGFIIEHLLKVPLTVVDNFHSHLEPMEFIRQDTFQDQVSFSYAHMKNQWNVIKVDGFDMKTDPKRFYSLHCQLFPYFSFCPPR | – | – | Delta-AP bound at background level | large increase in Delta-AP binding | over 50 fold |
